How the values were obtained:
[1] = biological target: human recombinant PDE-4B1 (Homo sapiens, UniProt Q07343); assay: PDE4-B1 assay (Compounds of Formula I), SPA; type: biochemical; conditions: for IC50: 4-parameter logistical fit, two technical replicates; for inhibition at 30 µM: relative to Ro 20-1724
Procedure: (§1) 20 mins after addition of human recombinant PDE-4B1 (1.2 IEU) or PDE-4D2 (1.5 IEU), SPA beads were added and incubated at 22° C. for a further 30 mins. [^3H]5′AMP was quantified by a standard scintillation counting method.

[2] = biological target: human serotonin transporter (Homo sapiens, UniProt P31645); conditions: for inhibition: 10 µM;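 for all read-outs here: Read-out: uptake of tritium-labelled serotonin, measured by scintillation counting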
Procedure: Following incubation, [^3H] serotonin uptake was quantified by a standard scintillation counting method.

[3] = biological target: human recombinant PDE-4D2 (Homo sapiens, UniProt Q08499); assay: PDE4-D2 assay (Compounds of Formula I), SPA; type: biochemical; conditions: for IC50: 4-parameter logistical fit, two technical replicates; for inhibition at 30 µM: relative to Ro 20-1724
Procedure: as §1

PDE-4A1A = biological target: T1, PDE-4A1A (Homo sapiens, UniProt P27815); assay: PDE-41A assay (Compounds of Formula II), AMP-Glo; type: biochemical
T1 construct: purchased Sigma SRP0262
Procedure: PDE-41A assays were performed using the AMP-Glo™ Assay Kit, (Promega-V5012) human recombinant […] (Sigma, SRP0262) according to recommended protocols. […]

hSERT = biological target: T2, hSERT (Homo sapiens, UniProt P31645); assay: SERT assay (Compounds of Formula II), transporter uptake assay kit; type: cell-based
T2 construct: expressed in transfected cells
Procedure: SERT assays were performed using a standard transporter uptake assay kit, (Molecular devices, (R8174)). In short, test compounds (10 nM-30 μM), reference compound or vehicle control were added to cells stably expressing hSERT (20,000/well) in assay buffer containing HBSS (20 mM) and BSA (0.1% (w/v)) for 30 mins at 30° C. Assay plates were incubated in the presence of dye for a further 60 mins at 37° C. and intracellular fluorescence intensity was determined.

Chain of human recombinant PDE-4D2 (Q08499 303-809): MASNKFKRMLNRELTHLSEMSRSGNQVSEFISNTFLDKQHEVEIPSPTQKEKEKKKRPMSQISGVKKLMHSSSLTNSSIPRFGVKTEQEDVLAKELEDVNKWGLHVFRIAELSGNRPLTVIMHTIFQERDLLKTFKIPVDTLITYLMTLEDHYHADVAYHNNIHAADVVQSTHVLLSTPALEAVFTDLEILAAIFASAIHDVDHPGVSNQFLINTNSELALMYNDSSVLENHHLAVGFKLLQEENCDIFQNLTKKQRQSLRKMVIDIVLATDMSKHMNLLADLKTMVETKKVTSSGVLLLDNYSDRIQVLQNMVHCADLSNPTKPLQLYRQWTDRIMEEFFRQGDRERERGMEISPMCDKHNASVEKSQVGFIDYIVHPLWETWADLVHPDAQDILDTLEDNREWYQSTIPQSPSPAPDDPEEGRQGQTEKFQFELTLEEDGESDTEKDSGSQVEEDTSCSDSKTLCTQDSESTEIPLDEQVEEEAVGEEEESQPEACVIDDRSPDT
Chain of human recombinant PDE-4B1 (Q07343 whole entry): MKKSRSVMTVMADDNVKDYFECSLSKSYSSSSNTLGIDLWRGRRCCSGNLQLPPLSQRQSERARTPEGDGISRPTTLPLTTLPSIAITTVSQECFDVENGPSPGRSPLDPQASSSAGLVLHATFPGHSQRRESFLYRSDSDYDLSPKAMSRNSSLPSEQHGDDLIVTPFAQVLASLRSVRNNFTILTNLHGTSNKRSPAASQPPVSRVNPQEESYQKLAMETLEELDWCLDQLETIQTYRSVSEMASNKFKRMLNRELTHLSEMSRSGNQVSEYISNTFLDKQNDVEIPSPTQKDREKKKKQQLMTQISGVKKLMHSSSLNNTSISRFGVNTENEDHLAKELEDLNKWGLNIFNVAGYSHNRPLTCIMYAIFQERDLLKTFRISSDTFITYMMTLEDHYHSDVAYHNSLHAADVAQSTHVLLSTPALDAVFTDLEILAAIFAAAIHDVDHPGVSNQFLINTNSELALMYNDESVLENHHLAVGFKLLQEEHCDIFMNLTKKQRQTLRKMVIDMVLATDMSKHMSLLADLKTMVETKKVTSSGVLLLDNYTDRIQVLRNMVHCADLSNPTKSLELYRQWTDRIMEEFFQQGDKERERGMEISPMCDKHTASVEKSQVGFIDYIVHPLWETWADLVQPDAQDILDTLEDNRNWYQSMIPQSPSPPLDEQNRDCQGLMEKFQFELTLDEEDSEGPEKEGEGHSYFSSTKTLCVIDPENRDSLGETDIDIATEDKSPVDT
T1 sequence (P27815 1-647 isoform P27815-4): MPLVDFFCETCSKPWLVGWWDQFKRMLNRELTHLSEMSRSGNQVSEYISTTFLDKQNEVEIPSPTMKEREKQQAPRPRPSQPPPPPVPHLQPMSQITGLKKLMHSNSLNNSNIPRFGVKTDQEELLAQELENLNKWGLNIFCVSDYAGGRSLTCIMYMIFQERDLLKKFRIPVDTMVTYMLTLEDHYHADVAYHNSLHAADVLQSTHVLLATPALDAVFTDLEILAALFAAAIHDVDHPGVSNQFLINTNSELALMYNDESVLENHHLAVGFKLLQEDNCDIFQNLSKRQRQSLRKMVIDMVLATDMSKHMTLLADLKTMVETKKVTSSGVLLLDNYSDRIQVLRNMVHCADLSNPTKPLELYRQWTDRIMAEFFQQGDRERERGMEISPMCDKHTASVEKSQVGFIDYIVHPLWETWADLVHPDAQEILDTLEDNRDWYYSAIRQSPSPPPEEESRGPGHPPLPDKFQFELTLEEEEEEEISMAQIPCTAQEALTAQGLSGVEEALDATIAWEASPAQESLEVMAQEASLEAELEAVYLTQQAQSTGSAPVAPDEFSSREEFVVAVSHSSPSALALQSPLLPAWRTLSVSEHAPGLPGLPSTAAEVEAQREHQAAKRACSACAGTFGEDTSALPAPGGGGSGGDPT
T2 sequence (P31645 whole entry): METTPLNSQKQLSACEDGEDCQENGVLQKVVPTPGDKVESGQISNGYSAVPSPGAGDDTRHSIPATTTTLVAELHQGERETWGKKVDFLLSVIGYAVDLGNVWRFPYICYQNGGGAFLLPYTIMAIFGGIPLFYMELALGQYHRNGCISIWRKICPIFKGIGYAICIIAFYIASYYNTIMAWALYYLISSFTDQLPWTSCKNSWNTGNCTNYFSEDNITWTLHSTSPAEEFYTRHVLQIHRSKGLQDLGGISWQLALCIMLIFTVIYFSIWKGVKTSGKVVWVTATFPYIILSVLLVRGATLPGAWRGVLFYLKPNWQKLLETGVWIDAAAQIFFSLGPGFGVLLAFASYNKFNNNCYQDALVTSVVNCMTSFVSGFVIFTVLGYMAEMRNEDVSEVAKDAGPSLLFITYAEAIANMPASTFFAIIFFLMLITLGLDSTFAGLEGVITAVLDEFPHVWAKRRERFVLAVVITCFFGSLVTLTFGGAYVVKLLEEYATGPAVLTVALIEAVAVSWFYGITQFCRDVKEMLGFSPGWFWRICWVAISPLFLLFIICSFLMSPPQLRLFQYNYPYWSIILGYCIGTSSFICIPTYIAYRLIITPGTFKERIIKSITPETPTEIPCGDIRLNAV
Chain of human serotonin transporter (P31645 whole entry): as above

SMILES	inhibition at 30 µM [1] [%]	inhibition [2] [%]	inhibition at 30 µM [3] [%]	inhibition at 30 µM (PDE-4A1A) [%]	inhibition at 100 µM (PDE-4A1A) [%]	inhibition at 1 µM (hSERT) [%]	inhibition at 3 µM (hSERT) [%]	further results
CCSc1cc([C@@]23CCC(=O)C[C@@H]2N(C)CC3)ccc1OC [Compound 3]	–	–	–	–	–	–	–	IC50 [1]: 5.2 µM; IC50 [2]: 0.005 µM; IC50 [3]: 1.3 µM
COc1ccc([C@@]23CCC(=O)C[C@@H]2N(C)CC3)cc1OCC(F)F [Compound 7]	–	–	–	–	–	–	–	IC50 [2]: 0.02 µM
COc1ccc([C@@]23CCC(=O)C[C@@H]2N(C)CC3)cc1O [Compound 10]	–	–	–	–	–	–	–	IC50 [1]: > 30 µM; IC50 [2]: 0.3 µM; IC50 [3]: > 30 µM
COc1ccc([C@@]23CCC(=O)C[C@@H]2N(C)CC3)cc1OC1CCCCC1 [Compound 14]	94	59	97	–	–	–	–	–
CCOc1ccc([C@@]23CCC(=O)C[C@@H]2N(C)CC3)cc1O [Compound 16]	-1	98	3	–	–	–	–	–
CCOc1ccc([C@@]23CCC(=O)C[C@@H]2N(C)CC3)cc1SC [Compound 17]	61	99	74	–	–	–	–	–
CC(C)Oc1ccc([C@@]23CCC(=O)C[C@@H]2N(C)CC3)cc1O [Compound 18]	-4	86	-3	–	–	–	–	–
COc1cc([C@@]23CCC(=O)C[C@@H]2N(C)CC3)ccc1OC(C)C [Compound 19]	1	99	3	–	–	–	–	–
CCCCOc1cc([C@@]23CCC(=O)C[C@@H]2N(C)CC3)ccc1OCC [Compound 20]	83	100	92	–	–	–	–	–
CC(C)Oc1ccc([C@@]23CCC(=O)C[C@@H]2N(C)CC3)cc1OCC1CC1 [Compound 22]	38	91	37	–	–	–	–	–
CCOc1ccc([C@@]23CCC(=O)C[C@@H]2N(C)CC3)cc1OC1CCCCC1 [Compound 23]	88	77	93	–	–	–	–	–
CSc1cc([C@@]23CCC(=O)C[C@@H]2N(C)CC3)ccc1OC(C)C [Compound 25]	–	–	–	–	–	–	–	IC50 [1]: > 30 µM; IC50 [3]: > 30 µM
CC(C)Oc1ccc([C@@]23CCC(=O)C[C@@H]2N(C)CC3)cc1OC1CCCCC1 [Compound 26]	26	81	20	–	–	–	–	–
CC(C)Oc1ccc([C@@]23CCC(=O)C[C@@H]2N(C)CC3)cc1OC1CCCC1 [Compound 28]	53	98	55	–	–	–	–	–
CCOc1cc([C@@]23CCC(=O)C[C@@H]2N(C)CC3)ccc1OC(C)C [Compound 29]	40	99	32	–	–	–	–	–
CCCCOc1cc([C@@]23CCC(=O)C[C@@H]2N(C)CC3)ccc1OC(C)C [Compound 30]	24	95	31	–	–	–	–	–
CN1CC[C@]2(c3ccc(OCC4CC4)c(O)c3)CCC(=O)C[C@H]12 [Compound 33]	–	–	–	–	–	–	–	IC50 [1]: > 30 µM; IC50 [2]: 2.1 µM; IC50 [3]: > 30 µM
COc1cc([C@@]23CCC(=O)C[C@@H]2N(C)CC3)ccc1OCC1CC1 [Compound 34]	–	–	–	–	–	–	–	IC50 [1]: > 30 µM; IC50 [2]: 0.9 µM; IC50 [3]: > 30 µM
CCOc1cc([C@@]23CCC(=O)C[C@@H]2N(C)CC3)ccc1OCC1CC1 [Compound 35]	–	–	–	–	–	–	–	IC50 [1]: > 30 µM; IC50 [2]: 0.2 µM; IC50 [3]: > 30 µM

SMILES	inhibition at 30 µM [1] [%]	inhibition [2] [%]	inhibition at 30 µM [3] [%]	inhibition at 30 µM (PDE-4A1A) [%]	inhibition at 100 µM (PDE-4A1A) [%]	inhibition at 1 µM (hSERT) [%]	inhibition at 3 µM (hSERT) [%]	further results
CN1CC[C@]2(c3ccc(OCC4CC4)c(OCC4CC4)c3)CCC(=O)C[C@H]12 [Compound 36]	–	–	–	–	–	–	–	IC50 [1]: > 30 µM; IC50 [2]: 0.4 µM; IC50 [3]: > 30 µM
COc1ccc([C@]23CCC(=O)C[C@H]2N(C)CC3)cc1OC [Compound 45]	–	–	–	–	–	–	–	IC50 [3]: < 3 µM
COc1ccc([C@@]23CC[C@@H](OC(=O)CCC(=O)O)C[C@@H]2N(C)CC3)cc1OC [Compound 46]	–	–	–	53	79	81	94	–
COc1ccc([C@@]23CC[C@@H](OC(=O)CCCC(=O)O)C[C@@H]2N(C)CC3)cc1OC [Compound 47]	–	–	–	40	88	90	94	–
COc1ccc([C@@]23CC[C@@H](OC(=O)CN)C[C@@H]2N(C)CC3)cc1OC [Compound 48]	–	–	–	-8	48	93	101	–
COc1ccc([C@@]23CC[C@@H](OC(=O)C(C)N)C[C@@H]2N(C)CC3)cc1OC (some centres unmarked) [Compound 49]	–	–	–	87	86	95	97	–
CCC(=O)O[C@@H]1CC[C@@]2(c3ccc(OC)c(OC)c3)CCN(C)[C@H]2C1 [Compound 50]	–	–	–	92	101	98	98	–
COc1ccc([C@@]23CC[C@@H](OC(=O)C(C)C)C[C@@H]2N(C)CC3)cc1OC [Compound 51]	–	–	–	95	99	99	98	–
COc1ccc([C@@]23CC[C@@H](OC(=O)c4ccccc4)C[C@@H]2N(C)CC3)cc1OC [Compound 52]	–	–	–	97	99	91	91	–
COc1ccc([C@@]23CC[C@@H](OC(=O)c4ccc[nH]4)C[C@@H]2N(C)CC3)cc1OC [Compound 53]	–	–	–	94	97	99	98	–
COc1ccc([C@@]23C=C[C@@H](OC(=O)CCC(=O)O)C[C@@H]2N(C)CC3)cc1OC [Compound 54]	–	–	–	98	101	78	98	–
COc1ccc([C@@]23C=C[C@@H](OC(=O)CCCC(=O)O)C[C@@H]2N(C)CC3)cc1OC [Compound 55]	–	–	–	100	95	67	97	–
COc1ccc([C@@]23C=C[C@@H](OC(=O)CN)C[C@@H]2N(C)CC3)cc1OC [Compound 56]	–	–	–	74	102	86	99	–
COc1ccc([C@@]23C=C[C@@H](OC(=O)C(C)N)C[C@@H]2N(C)CC3)cc1OC (some centres unmarked) [Compound 57]	–	–	–	101	102	86	97	–
CCC(=O)O[C@@H]1C=C[C@@]2(c3ccc(OC)c(OC)c3)CCN(C)[C@H]2C1 [Compound 58]	–	–	–	103	100	98	98	–
COc1ccc([C@@]23C=C[C@@H](OC(=O)C(C)C)C[C@@H]2N(C)CC3)cc1OC [Compound 59]	–	–	–	100	100	99	97	–
COc1ccc([C@@]23C=C[C@@H](OC(=O)c4ccccc4)C[C@@H]2N(C)CC3)cc1OC [Compound 60]	–	–	–	98	100	92	95	–
COc1ccc([C@@]23C=C[C@@H](OC(=O)c4ccc[nH]4)C[C@@H]2N(C)CC3)cc1OC [Compound 61]	–	–	–	94	90	101	106	–

— patent publication US20250091992A1, “NOVEL COMPOUNDS AND USES THEREOF” (KANNA HEALTH LIMITED, priority 2021, published 2025)
